“Also recorded” adds a separate entry of the source.
How the values were obtained:
SHP-1 = assay: HG-induced SHP-1 expression in pericytes (Western blot); type: cell-based; conditions: high glucose
Experimental: (§1) Protein tyrosine phosphatases (PTPs) play a key role in the regulation of receptor tyrosine kinases such as the PDGF-β receptor. Thus, experiments were performed to determine the pathway by which glycemic memory prevented tyrosine phosphorylation of the PDGF-Beta receptor. Cultured pericytes were exposed to either low glucose conditions (˜5.5 mM glucose, LG), high glucose conditions (˜20 mM glucose, HG), or high glucose followed by low glucose (˜20 mM, ±5.5 mM glucose, HG+LG) for 72 hours per exposure. Pericytes were lysed, and lysates were run on an SDS/PAGE gel, then transferred to nitrocellulose for immunoblotting, according to already published procedures. Commercially available antibodies for SHP-1 and another protein tyrosine phosphatase, PTP-1B were used to probe the blot, according to manufacturer's instructions.

PDGF-Beta receptor = assay: PDGF-BB-induced tyrosine phosphorylation of PDGF-β receptor in HG-treated pericytes (Western blot); type: cell-based; conditions: high glucose
Experimental: as §1
Cultured pericytes were treated with high glucose (˜20 mM glucose) and subsequently prepared for Western blot analyses as described in Example 2. An antibody directed against phosphorylated PDGF-Beta receptor was used to assess the effects of the HG treatment on receptor phosphorylation levels.

bovine retinal pericytes = assay: HG-induced apoptosis (DNA fragmentation) in cultured retinal pericytes; type: cell-based; conditions: for reversal of apoptosis / effects of HG once established: agent added during LG conditions after HG exposure; for effect on HG-induced apoptosis: pericytes in high glucose (20 mM), agent present with HG
Experimental: Cell apoptosis will be evaluated by measurement of DNA fragmentation using cell death detection kit (ROCHE diagnostics). Approximately 15000 cells are seeded in 96-well plates in DMEM with 20% FBS for 18 hours. BRP are starved for 24 hours and then stimulated with either 5.5 or 20 mM of d-glucose for an addition 72 hours. DNA fragmentation is measured in accordance to manufacture's protocol. Increases in caspase 3+9 cleared will also be measured using immunoblot analysis. Measurement of NF-κB activity in cultured cells. Activity of NF-κB will be assessed by a microwell colorimetric assay using the TransAM NFκB transcription factor assay kit (Active Motif, Carlsbad, Calif.) following manufacturer's instruction (Renard et al., Nucleic Acids Res 29, E21 (2001)).
Various potential mechanisms for the metabolic memory process in retinal pericytes were explored in vitro. Cells were culture in high glucose (HG, 20 mM glucose) for about 72 hours, and then for another 24 hours in low glucose (LG, 5.6 mM glucose). This mimics a period of hyperglycemia followed by normoglycemia, a common pattern in diabetics, who often have a period of poorly controlled glycemia before finding a regime that provides better control, thus providing a cultured cell model of metabolic memory.
(§2) The role of p38 MAPK was studied further using SB203580, a specific inhibitor for p38 MAPK a and […] and adenoviral vector of dominant negative p38 MAPKα and β isoforms (Wang et al., J Biol Chem 273, 2161-8 (1998)), either at the same time as starting HG condition or after 3 days of HG when cells are returning to LG condition. In addition, the effects of the antioxidant N-acetylcysteine (NAC) were also evaluated. Activation of p38 MAPK β and δ was evaluated by immunoblotting with anti-phospho p38 MAPK α and δ antibodies.

p38 MAPK = assay: HG-induced p38 MAPK activation in pericytes (immunoblot); type: cell-based, bovine; conditions: high glucose
From the text: In addition to PKC activation, the effect of HG on p38 MAPK activation was also characterized, since PKC δ activation induced by HG can activate p38 MAPK in aortic smooth muscle and renal mesangial cells. […] HG was able to increase the phosphorylation of p38 MAPK by 2-fold in pericytes after three days of exposure (FIG. 4) in parallel with PKC δ activation and increases in apoptosis; no effects on JNK were observed.
as §2

Molecule | effect on HG-induced expression of SHP-1 (SHP-1) | effect on HG-induced abrogation of PDGF-BB actions (PDGF-Beta receptor) | effect on HG-prevented tyrosine phosphorylation of PDGFR-β induced by PDGF (PDGF-Beta receptor; FIG. 16) | reversal of apoptosis / effects of HG once established (bovine retinal pericytes) | effect on HG-induced apoptosis (bovine retinal pericytes) | prevention of HG induced p38 MAPK activation (p38 MAPK)
C[S+]([O-])c1ccc(-c2nc(-c3ccncc3)c(-c3ccc(F)cc3)[nH]2)cc1 (stereo not shown) [SB203580] | prevented | abrogated PDGF-BB actions; also recorded: prevented | reversed | not totally effective | partly able to prevent; also recorded: prevented apoptosis | 
dominant negative form of SHP-1: dominant negative form of SHP-1 (Dubois et al., Nat. Med. 2006); C453S ablates phosphatase activity |  |  |  |  | reduces HG-induced apoptosis, even in the presence of PDGF | 
CC(=O)N[C@@H](CS)C(=O)O [NAC, N-acetylcysteine] |  |  |  | not totally effective | partly able to prevent | 
CN(C)C[C@@H]1CCn2cc(c3ccccc32)C2=C(C(=O)NC2=O)c2cn(c3ccccc23)CCO1 [RBX] |  |  |  |  | ineffective | ineffective

From patent publication US8372582B2, “Methods of modulating metabolic memory” (Joslin Diabetes Center, Inc., priority 2006, dated 2013)
